Measured values published in publication PMC4476799, “Englerin A Agonizes the TRPC4/C5 Cation Channels to Inhibit Tumor Cell Line Proliferation” (PLoS ONE, 2015).
Where “and” joins values, the source holds several entries; their conditions need not be identical. Equal values may be shown once.

Tests used:
TRPC4 = molecular target: T1, TRPC4 (Homo sapiens, UniProt Q9UBN4); assay: Electrophysiology (QPatch-HT automated patch clamp, voltage ramp); format: cell-based; details: TRPC4 expressing HEK293T cells
T1 construct: host or cells: Flp-In T-REx-293 (called HEK293T with Dox-inducible TRPC4)
T1 sequence (Q9UBN4 1-977): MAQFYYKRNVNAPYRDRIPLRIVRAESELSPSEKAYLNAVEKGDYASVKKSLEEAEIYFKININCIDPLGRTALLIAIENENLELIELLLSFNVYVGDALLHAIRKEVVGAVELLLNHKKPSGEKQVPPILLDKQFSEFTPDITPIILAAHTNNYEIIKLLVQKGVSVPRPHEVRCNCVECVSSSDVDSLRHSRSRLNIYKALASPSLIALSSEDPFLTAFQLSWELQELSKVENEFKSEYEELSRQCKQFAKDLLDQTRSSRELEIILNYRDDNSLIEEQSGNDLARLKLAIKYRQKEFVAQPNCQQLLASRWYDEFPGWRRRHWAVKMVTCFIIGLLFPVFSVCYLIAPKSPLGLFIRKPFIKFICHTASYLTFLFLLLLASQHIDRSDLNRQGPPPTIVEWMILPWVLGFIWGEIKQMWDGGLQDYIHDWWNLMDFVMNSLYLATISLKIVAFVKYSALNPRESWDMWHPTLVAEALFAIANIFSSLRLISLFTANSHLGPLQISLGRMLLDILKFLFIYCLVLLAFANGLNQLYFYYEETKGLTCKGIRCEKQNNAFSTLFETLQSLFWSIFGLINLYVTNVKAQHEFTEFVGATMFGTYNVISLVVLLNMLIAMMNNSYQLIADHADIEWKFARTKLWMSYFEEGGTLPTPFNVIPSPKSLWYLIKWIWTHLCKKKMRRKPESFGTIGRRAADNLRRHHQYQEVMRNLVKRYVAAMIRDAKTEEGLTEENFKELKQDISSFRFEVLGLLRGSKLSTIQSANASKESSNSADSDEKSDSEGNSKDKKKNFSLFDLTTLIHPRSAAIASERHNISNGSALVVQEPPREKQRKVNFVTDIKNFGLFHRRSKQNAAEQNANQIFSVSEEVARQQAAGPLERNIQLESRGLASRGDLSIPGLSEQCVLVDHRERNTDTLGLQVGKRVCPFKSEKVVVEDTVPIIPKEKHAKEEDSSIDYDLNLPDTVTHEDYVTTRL
Experimental: TRPC4 currents were recorded from HEK293T cells with Dox-inducible TRPC4 on the QPatch-HT automated patch clamp system at room temperature (21–24°C) (Biolin Scientific, Stockholm, Sweden). The internal solution contained (in mM): 150 Cs-aspartate, 2 MgCl2, 0.36 CaCl2, 1 EGTA, 4 MgATP, 0.3 NaGTP and 10 HEPES, pH = 7.20 with CsOH (calculated free [Ca^2+] = 100 nM using WebMaxChelator http://www.stanford.edu/~cpatton/maxc.html, assuming an ionic strength of 0.16). The standard external solution contained (in mM): 150 NaCl, 4 KCl, 2 CaCl2, 1 MgCl2, 10 HEPES and 10 D-glucose (pH = 7.40) with NaOH. Currents were elicited by a voltage ramp protocol consisting of a 50 ms step to −100 mV, followed by a 200 ms ramp to +100 mV and 10 ms at +100 mV. Voltage ramps were applied every 10 s from a holding potential of 0 mV. Results were expressed as means ± S.E.M.

[1] = Anesthetized rat experiments (hemodynamics, blood levels); format: in vivo; details: individual animals; for Outcome: IV infusion 0.3 mg/kg englerin B (doses up to 0.3 mg/kg); for Compound concentration in blood: IV infusion 0.3 mg/kg englerin B
Experimental: Rats were anesthetized via an intra-peritoneal (ip) injection of ketamine/xylazine (80/10 mg/kg). A half dose (40 mg/kg ketamine) was given as supplemental anesthesia as needed. Animals were placed on a heating pad set to maintain body temperature at approximately 37°C. Body temperature was monitored throughout the experiment via a rectal temperature probe.
Once consciousness had been lost, the trachea was isolated and an endotracheal tube was inserted for mechanical ventilation. The endotracheal tube was connected to a mechanical ventilator that provided positive-pressure ventilation with room air, set to maintain 60 breaths/min with a tidal volume of 15 ml/kg. An incision was made on both sides of the neck. Both carotid arteries and a jugular vein were isolated and ligated anteriorly. A Millar pressure catheter was introduced into the left carotid artery to measure systolic arterial pressure (SAP), diastolic pressure (DAP), mean arterial pressure (MAP) and heart rate (HR). Another Millar pressure catheter was introduced into the left ventricular chamber through the right carotid artery to measure left ventricular systolic pressure (LVSP) and left ventricular end diastolic pressure (LVEDP).
A cannula for test compound administration was placed into a jugular vein. A lead II electrocardiogram was recorded via needle electrodes placed in the right arm, left leg and chest and PR and QRS intervals were reported.
After rats were surgically instrumented, hemodynamic and electrocardiographic monitoring was initiated. […] The duration of the experimental testing was approximately 60 minutes.
At the end of each infusion period, approximately 0.5 ml of blood was withdrawn from the vena cava into a pre-chilled collection tube containing 2.5 ml of 90% ACN (acetonitrile):10% water.

[2] = male, Sprague Dawley, rat, in vivo, po, 5 mg/kg
Experimental: A 25 μl aliquot of sample was subjected to protein precipitation using 150 μl of acetonitrile containing 100 ng/ml of internal standard (glyburide). After vortex and centrifugation for 5 minutes at 4000 revolutions per minute, 125 μl of supernatant was transferred to a 1 ml 96-well plate, followed by the addition of 50 μl of water. The analysis was conducted by using HPLC separation coupled with mass spectrometric detection.
Agilent 1100 (Santa Clara, CA) was used for LC separations coupled with CTC PAL (Zwingen, Switzerland). […] A Sciex API 4000 Q Trap mass spectrometer equipped with a Turbo Ionspray interface from Applied Biosystems (Framingham, MA) was used for detection. The instrument was operated in the positive ion MRM mode employing nitrogen as a collision gas. […] Data were acquired and processed by Sciex Analyst 1.5.2 software.
Standard regression and back-calculation of unknown concentrations were performed by Thermo Watson 7.4 software purchased from Thermo Fisher Scientific, Inc. (Philadelphia, PA). Quantification of the parent compound in rat blood was based on at least 5-point calibration curve. […] The bias of all calibration standards and quality control samples was within the acceptance criteria of ± 30%.

## CC(C)[C@@]12C[C@@H](O)[C@@](C)(O1)[C@@H]1CC[C@@H](C)[C@H]1[C@@H]2OC(=O)/C=C/c1ccccc1 [Englerin B]
TRPC4
  induced current: did not induce current
[1]
  Outcome: No effect
  Compound concentration in blood: 539 nM and 362 nM and 462 nM and 442 nM
[1]; listed as englerin B
  Outcome: no effect on mean arterial pressure or animal viability
  Compound concentration in blood: 362 to 539 nM
[2]
  blood levels of englerin B after dosing englerin A: > 50 nM
